Data reported in patent publication US20230218714A1, “DIAGNOSTICS AND USE OF QUORUM SENSING MOLECULES IN MUSCLE WASTING” (Universiteit Gent, priority 2019, published 2023).
“Also recorded” adds a separate entry of the source. Where no end group is shown, it is not given here.

Legend:
C2C12 cells = test: Co-treatment of C2C12 cells with QSP and ala-scan derivative, IL-6 response; format: cell-based, mouse; details: for effect on Q055 mediated IL-6 induction: Q055 75 μM plus derivative 90 μM
Text: Means±SEM, n=6. * P<0.05; ** P<0.01, *** P<0.001; paired Student's t test.

C2C12 myoblasts [1] = test: MTT cell viability assay in C2C12 myoblasts; details: for Effect: viability (hit direction): screening at 1 μM, hit selection by MAD/quartile/SSMD/robust SSMD
Method: The mouse myoblast C2C12 cell line (ATCC, CRL-1772) was cultured at 37° C. in a 5% CO2 humidified incubator in Dulbecco's modified Eagle medium (DMEM; Thermo Fisher Scientific). For C2C12 cell proliferation, the medium was supplemented with 10% fetal bovine serum (FBS; Thermo Fisher Scientific), 100 units/ml penicillin, and 100 μg/ml streptomycin (1% Pen/Strep; Thermo Fisher Scientific). The proliferation medium was renewed each 2-3 days and confluency was kept below 80%. For differentiation of the C2C12 myoblasts into myotubes, proliferation medium was replaced by differentiation medium when cells reached 80% confluency.
Viability of QSM was assessed using the 3-(4,5-dimethylthiazol-2-yl)-2,5-diphenyltetrazolium bromide (MTT) assay. Briefly, C2C12 myoblasts were seeded in a 96-well plate (3×10^4 cells/well). 24 hours post-seeding, the wells were treated with QSM (1 μM), placebo or positive control (DMSO 2%) and incubated for 24 hours at 37° C. Next, 20 μL of MTT reagent (5 mg/mL; Sigma-Aldrich) was added to each well and the plates were returned to the incubator for 2.5 hours. After incubation, supernatant was removed from the wells and 150 μL of DMSO was added to release and dissolve the formazan crystals. Absorbance was measured at 570 nm using a microplate reader (Thermo Fisher).
The MTT assay is a widely validated and accepted viability assay for screening experiments. In this assay, the reduction of MTT into formazan, catalysed by living cell enzymes, is used as a marker of cell viability. If QSM are cytotoxic or cytostatic towards C2C12 cells, a decrease in MTT reduction is expected (viability less than 100%), while an increased C2C12 proliferation caused by QSM will result in an increased MTT reduction (viability more than 100%).
In a further set of experiments, the dose response effect of QSPs Q22 and Q184 was assessed on MTT reduction of C2C12 myotubes (tables 7.4 and 7.5).

[2] = test system: GDF15 production by C2C12 myotubes; test: GDF15 production by C2C12 myotubes (sandwich ELISA), mitochondrial changes; format: cell-based, mouse; details: for Effect: GDF15 (hit direction): screening at 1 μM; for GDF15 secretion, effect relative to median: QSM 1 μM, C2C12 myotubes
Method: GDF15 levels were determined in the supernatants of C2C12 cells after QSM, placebo or positive control (oligomyin) treatment, using a sandwich ELISA (R&D Systems). A similar protocol as described for the IL-6 determination was used.
GDF15 is considered a useful biomarker for direct or indirect changes in mitochondrial function. Moreover, GDF15 is implicated in muscle wasting diseases like sarcopenia, chronic obstructive pulmonary disease cachexia and critical illness.

[3] = test system: IL-6 production by C2C12 myotubes; test: IL-6 production by C2C12 myotubes (sandwich ELISA); format: cell-based, mouse; details: for Effect: inflammation (IL-6 production, hit direction): screening at 1 μM
Method: C2C12 myoblasts (2.5×10^4 cells/well) were seeded in 96-well plates and incubated until they reached 80% confluency, after which the proliferation medium was removed and replaced by differentiation medium. After 6 days of incubation with daily renewed differentiation medium, the cells were treated with 1 μM of QSM, placebo or positive control (LPS) for 24 hours. IL-6 levels were determined in the supernatants using a sandwich ELISA (eBioscience), using IL-6 capture antibody, blocking solution, samples and standards, IL-6 detection antibody, avidin-horseradish peroxidase and substrate solution which were added sequentially, with washing steps in between. After stopping the reaction with H2SO4 solution, the absorbance was measured at 450 nm and 570 nm (correction wavelength) using a microplate reader (ThermoLab Systems). Concentrations were determined using the standard curves generated with known concentrations of IL-6.
Several pro-inflammatory cytokines are elevated in sepsis, cancer, ageing and other catabolic diseases. They are thought to trigger muscle wasting (partly) through NF-kB pathways. […] In these screening experiments, the effects of QSM on myotube IL-6 production were assessed using a sandwich ELISA.
In a further set of experiments, using similar methods as described for the screening experiments, a number of QSPs were tested for a dose response relation in C2C12 cells.

C2C12 myoblasts [4] = test: Differentiation of C2C12 myoblasts into myotubes (LADD stain, ImageJ); format: cell-based, mouse; details: for differentiation capacity relative to the median of all samples: QSM 1 μM at d0 and d3, myotube formation at d6; for Effect: differentiation (hit direction): screening at 1 μM, myotube formation
Method: Differentiation medium consisted of DMEM supplemented with 2% horse serum (HS; Thermo Fisher Scientific) and 1% Pen/Strep. All experiments were done with C2C12 passage numbers below 30.
C2C12 myoblasts (1×10^4 cells/well) were seeded in 48-well plates and incubated until they reached 80% confluency, after which the proliferation medium was removed and replaced by differentiation medium (d0). The differentiation medium was renewed at d3. QSM (1 μM), placebo or positive controls (vitamin D3) were added to the cells together with the differentiation medium at d0 and d3. After 6 days of incubation (d6), myotubes were stained with the combined nuclear and cytoplasmatic LADD Multiple Stain (as described in R. McColl, M. Nkosi, C. Snyman, C. Niesler, Analysis and quantification of in vitro myoblast fusion using the LADD Multiple Stain, Biotechniques 61(6) (2016) 323-326). LADD Multiple Stain is a solution containing toluidine blue (VWR) and basic fuchsin (Fluka) in 30% (v/v) ethanol. The stained myotubes were assessed under a phase-contrast microscope equipped with a camera (Olympus CKX53) at a total magnification of 100×. Five different images were taken per well. The amount of myotube formation was automatically quantified using ImageJ software.
Mimicking the in vivo muscle physiology, C2C12 myoblasts are able to differentiate into myotubes when they are adjacent to each other and a differentiating extracellular medium is present. Muscle wasting diseases are characterized by a decreased myotube formation. To evaluate the effects of QSM on the differentiation capacities of C2C12 myoblasts, the C2C12 cells were treated in differentiation medium with QSM at d0 and d3, and evaluated the myotube formation at d6. At d6, the staining protocol of McColl et al. was used to visualize the myotubes (references see above). The differentiation capacity of all QSM was between 71% (Q013) and 145% (AI-2) relative to the median of all samples (FIG. 1).

C. elegans = C. elegans swimming behaviour (muscle wasting/aging model); format: in vivo; set-up: key to Wave initiation rate / Asymmetry / Stretch / Curling / Travel speed / Brush stroke / Activity index: relative to placebo set to 1.0; details: DMSO positive control
Text: The C. elegans model is a well-established aging model: they diminish in locomotory vigor as they age, a phenomenon that is attributed to a physical deterioration of muscle and synapses. QSPs were introduced in the medium of living C. elegans. As comparisons, a placebo experiment was used as negative control, while DMSO was used as positive control.
Using automatic, objective imaging software, different swimming behaviour variables associated with this decrease in locomotory vigor or muscle wasting were investigated. Wave initiation rate, travel speed, brush stroke and activity index do decrease with muscle wasting, while body wave number, asymmetry, curling and stretch do increase with muscle wasting, as described in Restif et al., Plos Computational Biology, 2014.
More in particular, the results in these tables show Q184-associated changes in three swimming parameters in wild-type adults at day 3 (Table 9) and day 12 (Table 10) (n=120-170 from 3 independent trials for each condition). Data presented are means±s.e.m (placebo set to 1.0).

[5] = day 3, placebo set to 1.0, Q184 at 1 μM
[6] = day 12, placebo set to 1.0, Q184 at 1 μM

GSLSTFFALFNRSFTQALGK (Synthetic Q176-A9)
effect on Q176 mediated IL-6 induction (C2C12 cells; Q176 50 μM plus derivative 60 μM): inhibiting the Q176 mediated IL-6 induction

DSVCASYF [Q040]
Effect: viability (hit direction) (C2C12 myoblasts [1]): decreasing viability hits

CCCCCC(=O)N[C@H]1CCOC1=O [C6-HSL]
Effect: GDF15 (hit direction) [2]: increased GDF15 production

YSTCDFIM [Q148]
GDF15 secretion, effect relative to median [2]: 80%

SRNAT [Q192, SRNAT]
viability relative to the median of all samples (MTT) (C2C12 myoblasts [1]; QSM 1 μM, 24 h, C2C12 myoblasts, n=2): 120%
Effect: viability (hit direction) (C2C12 myoblasts [1]): strong increasing hit; also recorded: ↑ viability

GLWEDILYSLNIIKHNNTKGLHHPIQL [Q101]
Effect: viability (hit direction) (C2C12 myoblasts [1]): increasing hits; also recorded: ↑ viability

FLVMFLSG [Q093]
GDF15 secretion, effect relative to median [2]: 137%
Effect: GDF15 (hit direction) [2]: increased GDF15 production

ESRLPKIRFDFIFPRKK [Q054]
relative IL-6 production ([3]; QSM 1 μM, 24 h, relative to median of all QSM): 51%
Effect: inflammation (IL-6 production, hit direction) [3]: decreased the IL-6 production; also recorded: ↓ inflammation

GKAEF [Q099]
GDF15 secretion, effect relative to median [2]: 80%
Effect: GDF15 (hit direction) [2]: decreased the GDF15 production

LFSLVLAG [Q132]
Effect: viability (hit direction) (C2C12 myoblasts [1]): decreasing viability hits

CCCC(O)CC(=O)N[C@H]1CCOC1=O (some centres unmarked) [3-OH-C6-HSL]
Effect: viability (hit direction) (C2C12 myoblasts [1]): increasing hit; also recorded: ↑ viability

SDLPFEH [Q164]
Effect: viability (hit direction) (C2C12 myoblasts [1]): increasing hits; also recorded: ↑ viability

ESRVSRIIADFLFQRKK (Synthetic QSP055-A9)
effect on Q055 mediated IL-6 induction (C2C12 cells): antagonistic effect

C[C@]12OC[C@H](O)[C@@]1(O)O[B-](O)(O)O2 [AI-2]
GDF15 secretion, effect relative to median [2]: 216%
Effect: GDF15 (hit direction) [2]: increased GDF15 production
differentiation capacity relative to the median of all samples (C2C12 myoblasts [4]): 145%
Effect: differentiation (hit direction) (C2C12 myoblasts [4]): increased myotube formation; also recorded: ↑ differentiation
Effect: viability (hit direction) (C2C12 myoblasts [1]): increasing both C2C12 viability and GDF15 production

SRVSAIILDFLFQRKK (Synthetic Q055-A6)
effect on Q055 mediated IL-6 induction (C2C12 cells): inhibited the Q055 mediated IL-6 induction

ALILTLVS [Q017]
Effect: viability (hit direction) (C2C12 myoblasts [1]): decreasing viability hits

YSPWTNF [Q007]
Effect: inflammation (IL-6 production, hit direction) [3]: increased IL-6 production; also recorded: ↑ inflammation

ERPVG [Q052]
Effect: inflammation (IL-6 production, hit direction) [3]: decreased the IL-6 production; also recorded: ↓ inflammation
Effect: viability (hit direction) (C2C12 myoblasts [1]): increasing hits; also recorded: increasing viability hit

LPFEF [Q134]
Effect: viability (hit direction) (C2C12 myoblasts [1]): decreasing viability hits

QNSPNIFGQWM [Q097]
Effect: viability (hit direction) (C2C12 myoblasts [1]): decreasing viability hits

NNWNN [Q019]
Effect: differentiation (hit direction) (C2C12 myoblasts [4]): increased myotube formation; also recorded: ↑ differentiation

DLRGVPNPWGWIFGR [Q030]
Effect: viability (hit direction) (C2C12 myoblasts [1]): decreasing viability hits

MKAEH [Q140]
Effect: viability (hit direction) (C2C12 myoblasts [1]): increasing hits; also recorded: ↑ viability

AGTKPQGKPASNLVECVFSLFKKCN [Q011]
Effect: GDF15 (hit direction) [2]: increased GDF15 production
Effect: viability (hit direction) (C2C12 myoblasts [1]): decreasing viability hits

AKDEH [Q015]
Effect: GDF15 (hit direction) [2]: increased GDF15 production
Effect: viability (hit direction) (C2C12 myoblasts [1]): decreasing viability hits

MAGNSSNFIHKIKQIFTHR [Q138]
Effect: viability (hit direction) (C2C12 myoblasts [1]): increasing hits; also recorded: ↑ viability

ARNQT [Q018]
Effect: viability (hit direction) (C2C12 myoblasts [1]): decreasing viability hits

DLRNIFLKIKFKKK [Q031]
Effect: viability (hit direction) (C2C12 myoblasts [1]): decreasing viability hits

C[S+](C)[O-] [DMSO, dimethylsulfoxide, reference compound]
Activity index (C. elegans; [5]): 0.60
Asymmetry (C. elegans; [5]): 3.11
Body wave number (C. elegans; [5]): 2.04
Brush stroke (C. elegans; [5]): 0.68
Curling (C. elegans; [5]): 1.55
Stretch (C. elegans; [5]): 1.10
Travel speed (C. elegans; [5]): 0.85
Wave initiation rate (C. elegans; [5]): 0.58
Activity index (C. elegans; [6]): 0.31
Asymmetry (C. elegans; [6]): 2.50
Body wave number (C. elegans; [6]): 2.59
Brush stroke (C. elegans; [6]): 0.48
Curling (C. elegans; [6]): 0.08
Stretch (C. elegans; [6]): 0.91
Travel speed (C. elegans; [6]): 0.49
Wave initiation rate (C. elegans; [6]): 0.39

AIFILAS [Q013]
differentiation capacity relative to the median of all samples (C2C12 myoblasts [4]): 71%
